Measured values as given in US20240360109A1 (SHANGHAI HANSOH BIOMEDICAL CO., LTD., priority 2021, published 2024).

How the values were obtained:
human GLP-1 receptor = target: T1, human GLP-1 receptor (Homo sapiens, UniProt P43220); assay: Stimulation of human GLP1 receptor stable transgenic cell line CHO-K1/GLP-1R/CRE-luc to produce cAMP (HTRF); format: cell-based; conditions: cAMP production, CHO-K1/GLP-1R/CRE-luc cells, 30 minutes incubation, 0.5 mM IBMX
T1 construct: expressed in transfected cells
T1 sequence (P43220 24-463): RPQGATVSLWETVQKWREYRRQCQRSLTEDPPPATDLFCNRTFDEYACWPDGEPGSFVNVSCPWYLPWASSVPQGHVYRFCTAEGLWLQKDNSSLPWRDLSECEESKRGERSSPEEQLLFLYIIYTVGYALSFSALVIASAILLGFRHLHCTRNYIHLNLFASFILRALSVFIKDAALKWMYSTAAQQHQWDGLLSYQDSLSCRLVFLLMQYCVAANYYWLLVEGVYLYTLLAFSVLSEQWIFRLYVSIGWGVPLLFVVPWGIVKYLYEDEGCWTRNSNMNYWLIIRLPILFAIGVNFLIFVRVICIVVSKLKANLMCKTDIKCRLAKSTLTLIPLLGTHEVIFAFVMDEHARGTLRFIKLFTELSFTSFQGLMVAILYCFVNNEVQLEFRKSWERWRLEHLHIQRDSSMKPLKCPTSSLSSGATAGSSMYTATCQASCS
From the text: I. Determination of the Ability of the Compound of the Present Invention to Stimulate Human GLP1 Receptor Stable Transgenic Cell Lines to Produce cAMP
The purpose of this test example is to determine the ability of the compound to activate the human GLP-1 receptor on the cell surface. The EC50 that stimulates […] after agonism characterizes the compound's ability to activate the human GLP-1 receptor.
The frozen human GLP1 receptor stable transgenic cell line CHO-K1/GLP-1R/CRE-luc was taken from the liquid nitrogen tank, quickly thawed in a 37° C. water bath, resuspended with DMEM/F12 medium, centrifuged, and washed once. The cells were resuspended with the experimental buffer, namely DMEM/F12 medium containing 0.1% casein, and the experimental buffer was used to adjust the cell density. The cells were spread on spread on a 384-well plate at a density of 2500 cells/5 μL/well, and then to each well was added 2.5 μL of buffer-prepared IBMX working solution with a final concentration of IBMX of 0.5 mM, and 2.5 μL of the compound sample with gradient dilution (starting at 1000 nM, 3-fold dilution, 11 concentrations). The plate was centrifuged at 1000 rpm for 1 minute, shaken for 30 seconds to mix well, and incubated at room temperature for 30 minutes. Detection was performed using the Cisbio cAMP—Gs Dynamic kit. cAMP-d2 and Anti-cAMP-Eu^3+-Cryptate were diluted 20-fold with cAMP Lysis & Detection Buffer, respectively, and mixed well. To each well was added 5 μL diluted cAMP-d2 solution, and then added 5 μL diluted Anti-cAMP-Eu3^+-Cryptate solution. The plate was shaken for 30 seconds, and incubated at room temperature for 1 hour in the dark. The signal reading of HTRF was performed using the Biotek Synergy H1 microplate reader with an excitation wavelength of 320 nm and emission wavelengths of 620 nm and 665 nm.
The signal ratio (665 nm/620 nm*10,000) was calculated, and the signal ratio and sample concentration were nonlinearly fitted using a four-parameter equation in GraphPad Prism 6 to obtain the EC50 value.

[1] = Pharmacokinetic assay of SD rats; format: in vivo; conditions: Sprague-Dawley, rat, po; male SD rats, plasma, dose 50 mg/kg (b1219 prints 5 mg/kg)
Procedure: SD rats were used as test animals. The pharmacokinetic behavior of the following example compounds was studied in the plasma of rats administered orally at a dose of 50 mg/kg.
Vehicle formula: 0.5% CMC-Na (1% Tween 80);
Three SD rats per group, male. […]
Before and after administration, 0.2 mL of blood was collected from the jugular vein at 0, 0.25, 0.5, 1, 2, 4, 6, 8 and 24 hours, placed in EDTA-K2 tubes, centrifuged at 6000 rpm at 4° C. for 6 min to separate the plasma. The plasma samples were stored at −80° C. The […] was fed 4 hours after the administration.
• 1) 160 μL of acetonitrile was added to 40 μL of the plasma sample for precipitation, and then the mixture was centrifuged at 3500×g for 5-20 min. • 2) After the above process, 100 μL of the supernatant was taken to analyze the concentration of the test compound by LC/MS/MS.
• Liquid chromatography condition: Shimadzu LC-20AD pump Mass spectrometry condition: AB Sciex API 4000 mass spectrometer Chromatographic column: phenomenex Gemiu 5 μm C18 50×4.6 mm • Mobile phase: Eluent A was 0.1% formic acid in water, and Eluent B was methanol • Flow rate: 1.0 mL/min • Elution time: 0-4.0 minutes, the eluent is as follows:
The main pharmacokinetic parameters were calculated using WinNonlin 8.2.

[2] = system: GLP-1R humanized C57BL/6 mice fed with high-fat diet; assay: Long-term administration: body weight and ingestion of GLP-1R humanized mice fed with high-fat diet; format: in vivo; conditions: HFD mice; for Weight (g)-D0 Mean: Day 0 (day of first administration, baseline), 10 mg/kg oral once a day; for Body weight change(%)-D10 Mean: Day 10 versus Day 0, 10 mg/kg oral once a day
From the text: The purpose of this test is to evaluate the effects of long-term administration of the compound on the body weight and ingestion of GLP-1R humanized C57BL/6 mice fed with high-fat diet.
C57BL/6_hGLP-1R, male, 5-8 weeks; 60% high-fat diet (HFD); Ultra-clean workbench; Electronic balance.
3.1 On the day of feeding with high-fat diet, C57BL/6 mice were randomly divided into two groups according to their weight. The first group was Blank, with 7 mice fed with normal control diet, while the remaining animals were in the modeling group, fed with high-fat diet, and continued until the end of the experiment.
3.2 At the 8th week of HFD feeding, the modeling group animals were randomly divided with 7 animals per group according to their weight. The first group was the Vehicle group (Vehicle: 0.5% CMC Na+1% Tween 80), which was given vehicle; The remaining group was the administration group; Administration regimen: Oral administration of the corresponding compound, administration cycle was 14 days, once a day for 14 days, with an administration dose of 10 mg/kg and an administration volume of 10 mL/kg. The Blank group continued to be fed with normal diet without any administration operation.
3.3 The day of administration was defined as Day 0.
3.4 During each administration, animals were weighed and data was recorded. Oral administration is performed according to body weight, with an administration volume of 10 mL/kg.
3.5 Starting from Day 0 of the experiment, the food intake of each group of mice was measured once every three days. Specifically, the feed was changed after each weighing and administration, and the added and remaining amounts were recorded.
3.6 On the end day of Day 14, all mice were euthanized sequentially according to grouping order, and the livers were dissected and weighed.
The weight and weight change rate of mice after administration were summarize and statistically analyzed. Weight change rate calculation: (BWt−BW0)/BW0×100%. BWt represents the weight of the mice on Day t of the experiment, and BW0 represents the weight of the mice on Day 0 of the experiment.
Calculation of food intake: (added amount (g)−remaining amount (g))/number of animals per cage, cumulative food intake is the sum of daily food intake of each animal during the administration period.
Experimental data were analyzed using GraphPad Prism software. The t-test method was used for comparison between the two groups. The one-way ANOVA method was used for comparisons between three or more groups.

Structure (SMILES)	EC50 (human GLP-1 receptor) [nM]	AUC(0-inf) [1] [ng·h/mL]	AUC(0-t) [1] [ng·h/mL]	Cmax [1] [ng/mL]	Tmax [1] [h]	half-life [1] [h]	further results
O=C(O)c1ccc2nc(CN3CCC(c4cccc5c4OC(c4ccc(Cl)cc4F)C=C5F)CC3)n(C[C@@H]3CCO3)c2c1 (stereo partly drawn) [Example 1, 2-((4-(2-(4-Chloro-2-fluorophenyl)-4-fluoro-2H-chromen-8-yl)piperidin-1-yl)methyl)-1-(((S)-oxetan-2-yl)methyl)-1H-benzo[d]imidazole-6-carboxylic acid]	0.13	–	–	–	–	–	–
O=C(O)c1ccc2nc(CN3CCC(c4cccc5c4O[C@@H](c4ccc(Cl)cc4F)C=C5F)CC3)n(C[C@@H]3CCO3)c2n1 [Example 2-A, 2-((4-((R)-2-(4-chloro-2-fluorophenyl)-4-fluoro-2H-chroman-8-yl)piperidin-1-yl)methyl)-3-(((S)-oxetan-2-yl)methyl)-3H-imidazolo[4,5-b]pyridine-5-carboxylic acid]	0.07	35800	35800	7160	2	3.1	–
O=C(O)c1ccc2nc(CN3CCC(c4cccc5c4OC(c4ccc(Cl)cc4F)C=C5F)CC3)n(CC3(CF)CC3)c2c1 (stereo not drawn) [Example 3, 2-((4-(2-(4-Chloro-2-fluorophenyl)-4-fluoro-2H-chromen-8-yl)piperidin-1-yl)methyl)-1-((1-(fluoromethyl)cyclopropyl)methyl)-1H-benzo[d]imidazole-6-carboxylic acid]	0.06	–	–	–	–	–	–
[2H]C([2H])([2H])Oc1cc(Cl)ccc1[C@H]1C=C(F)c2cccc(C3CCN(Cc4nc5ccc(C(=O)O)nc5n4C[C@@H]4CCO4)CC3)c2O1 [Example 23-A, 2-((4-((R)-2-(4-chloro-2-(methoxy-d3)phenyl)-4-fluoro-2H-chromen-8-yl)piperidin-1-yl)methyl)-3-(((S)-oxetan-2-yl)methyl)-3H-imidazolo[4,5-b]pyridine-5-carboxylic acid]	0.07	–	–	–	–	–	–
[2H]C([2H])([2H])Oc1cc(Cl)ccc1[C@H]1C=C(F)c2cccc(C3CCN(Cc4nc5ccc(C(=O)O)cc5n4C[C@@H]4CCO4)CC3)c2O1 [Example 24-A, 2-((4-((R)-2-(4-chloro-2-(methoxy-d3)phenyl)-4-fluoro-2H-chromen-8-yl)piperidin-1-yl)methyl)-1-(((S)-oxetan-2-yl)methyl)-1H-benzo[d]imidazole-6-carboxylic acid]	0.05	–	–	–	–	–	–
[2H][C@]1(c2ccc(Cl)cc2F)C=C(F)c2cccc(C3CCN(Cc4nc5ccc(C(=O)O)nc5n4C[C@@H]4CCO4)CC3)c2O1 [Example 40, 2-((4-((R)-2-(4-Chloro-2-fluorophenyl)-4-fluoro-2H-chromen-8-yl-2-d)piperidin-1-yl)methyl)-3-(((S)-oxetan-2-yl)methyl)-3H-imidazolo[4,5-b]pyridine-5-carboxylic acid]	0.1	10800	10300	2300	1	2	Weight (g)-D0 Mean ([2]; the 3rd table): 28.40 g; Weight (g)-D10 Mean ([2]; Day 10, 10 mg/kg oral once a day, the 3rd table): 26.01 g; Body weight change(%)-D10 Mean ([2]; the 3rd table): −8.49%
[2H][C@]1(c2ccc(Cl)cc2F)C=Cc2cccc(C3CCN(Cc4nc5ccc(C(=O)O)cc5n4C[C@@H]4CCO4)CC3)c2O1 [Example 47]	0.08	–	–	–	–	–	–
[2H]C([2H])([2H])Oc1cc(Cl)ccc1[C@@]1([2H])C=C(F)c2cccc(C3CCN(Cc4nc5ccc(C(=O)O)cc5n4C[C@@H]4CCO4)CC3)c2O1 [Example 49, 2-((4-((R)-2-(4-Chloro-2-(methoxy-d3)phenyl)-4-fluoro-2H-chromen-8-yl-2-d)piperidin-1-yl)methyl)-1-(((S)-oxetan-2-yl)methyl)-1H-benzo[d]imidazole-6-carboxylic acid]	0.08	–	–	–	–	–	–
N#Cc1ccc([C@H]2C=Cc3cccc(C4CCN(Cc5nc6ccc(C(=O)O)cc6n5C[C@@H]5CCO5)CC4)c3O2)c(F)c1 [Example 52, 2-((4-((R)-2-(4-Cyano-2-fluorophenyl)-2H-chromen-8-yl)piperidin-1-yl)methyl)-1-(((S)-oxetan-2-yl)methyl)-1H-benzo[d]imidazole-6-carboxylic acid]	0.05	12600	12600	9400	1	1.6	–
O=C(O)c1ccc2nc(CN3CCC(c4cccc5c4O[C@@H](c4ccc(Cl)cc4F)C=C5)CC3)n(C[C@@H]3CCO3)c2c1 [Example 53]	0.06	21600	21500	7980	0.5	2	Weight (g)-D0 Mean ([2]; the 4th table): 28.34 g; Eeight (g)-D10 Mean ([2]; Day 10, 10 mg/kg oral once a day, the 4th table): 25.65 g; Body weight change(%)-D10 Mean ([2]; the 4th table): −9.53%
